Counter-ions that a name gives are not always drawn.
Biological target: T1, p-38 MAP kinase (Homo sapiens, UniProt Q16539)
T1 construct: made in house; host or cells: E. coli (co-expressed with SEK-1 and MEKK)
Experiment: Inhibition of p-38 (MAP) kinase, in vitro assay (transfer of γ-phosphate from γ-33P-ATP to Myelin Basic Protein)
Assay type: biochemical
Conditions: phosphorylated recombinant p38 MAP kinase; substrate MBP and γ-33P-ATP; 30° C.; read-out: IC50, the concentration causing 50% inhibition of the p-38 enzyme
Method: The p-38 MAP kinase inhibitory activity of compounds of this invention in vitro was determined by measuring the transfer of the γ-phosphate from γ-^33P-ATP by p-38 kinase to Myelin Basic Protein (MBP), using the a minor modification of the method described in Ahn, N. G.; et al. J. of Biol. Chem. Vol. 266(7), 4220-4227, (1991)
The phosphorylated form of the recombinant p38 MAP kinase was expressed with SEK-1 and MEKK in E. Coli (see, Khokhlatchev, A. et al. J. of Biol. Chem. Vol. 272(17), 11057-11062, (1997) and then purified by affinity chromatography using a Nickel column.
The phosphorylated p38 MAP kinase was diluted in kinase buffer (20 mM 3-(N-morpholino)propanesulfonic acid, pH 7.2, 25 mM β-glycerol phosphate, 5 mM ethylene glycol-bis(beta-aminoethyl ether)-N,N,N′,N′-tetraacetic acid, 1 mM sodium vanadate, 1 mM dithiothreitol, 40 mM magnesium chloride). Test compound dissolved in DMSO or only DMSO (control) was added and the samples were incubated for 10 min. at 30° C. The kinase reaction was initiated by the addition of a substrate cocktail containing MBP and γ-^33P-ATP. After incubating for an additional 20 min. at 30° C., the reaction was terminated by adding 0.75% phosphoric acid. The phosphorylated MBP was then separated from the residual γ-^33P-ATP using a phosphocellulose membrane (Millipore, Bedford, Mass.) and quantitated using a scintillation counter (Packard, Meriden, Conn.).

T1 sequence (Q16539 whole entry): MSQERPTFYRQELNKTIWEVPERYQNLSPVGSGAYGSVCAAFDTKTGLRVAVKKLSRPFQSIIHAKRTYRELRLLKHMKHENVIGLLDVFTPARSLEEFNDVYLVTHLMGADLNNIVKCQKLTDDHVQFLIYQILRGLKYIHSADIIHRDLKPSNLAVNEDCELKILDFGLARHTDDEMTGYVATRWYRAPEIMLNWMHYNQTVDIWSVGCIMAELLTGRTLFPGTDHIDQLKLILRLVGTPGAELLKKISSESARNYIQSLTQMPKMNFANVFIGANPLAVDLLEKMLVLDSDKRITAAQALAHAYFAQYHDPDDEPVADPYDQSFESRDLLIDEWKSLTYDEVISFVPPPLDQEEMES

Row | SMILES | IC50 [nM]
1 | O[C@H]1CC[C@H](Nc2ncc3cc(-c4ccccc4Cl)c4nccn4c3n2)CC1 [Compound 1] | 10
2 | O[C@H]1CC[C@H](Nc2ncc3c(n2)N2CCN=C2N(c2ccccc2Cl)C3)CC1 [Compound 12] | 6620
3 | O[C@H]1CC[C@H](Nc2ncc3c(n2)N2CCN=C2C(c2ccccc2Cl)=C3)CC1 [Compound 13] | 1140

The remaining lines, values ahead:

Row | IC50 [nM] | SMILES
4 | 2.7 | CS(=O)(=O)N1CCC(Nc2ncc3cc(-c4ccccc4Cl)c4nccn4c3n2)CC1 [Compound 3]
5 | 1.4 | CC(C)Nc1ncc2cc(-c3ccccc3Cl)c3nccn3c2n1 [Compound 7]
6 | 18.8 | CC(C)(CO)Nc1ncc2cc(-c3ccccc3Cl)c3nccn3c2n1 [Compound 6]

System: not given
Experiment: not given
Conditions: not given

Row | SMILES | melting point [°C]
7 | O=S1(=O)CCC(Nc2ncc3cc(-c4ccccc4Cl)c4nccn4c3n2)CC1 (as salt: HCl) [Compound 5] | 221.8 to 226.8
8 | O[C@H]1CC[C@H](Nc2ncc3cc(-c4ccccc4Cl)c4nccn4c3n2)CC1 [Compound 1] | 116 to 119
9 | Fc1ccc(CNc2ncc3cc(-c4ccccc4Cl)c4nccn4c3n2)cc1 (as salt: HCl) [Compound 8] | 178 to 180
10 | Clc1ccccc1-c1cc2cnc(NC3CCOCC3)nc2n2ccnc12 (as salt: HCl) [Compound 2] | 211 to 214
11 | O[C@H]1CC[C@H](Nc2ncc3c(n2)N2CCN=C2C(c2ccccc2Cl)=C3)CC1 [Compound 13] | 169.3 to 175.8

Second part, the compound after the results:

Row | melting point [°C] | SMILES
12 | 172.2 to 176 | CS(=O)(=O)CCNc1ncc2cc(-c3ccccc3Cl)c3nccn3c2n1 (as salt: HCl) [Compound 9]
13 | 188 to 194 | CS(=O)(=O)N1CCC(Nc2ncc3cc(-c4ccccc4Cl)c4nccn4c3n2)CC1 (as salt: HCl) [Compound 3]
14 | 190.8 to 194.3 | CC(C)(CO)Nc1ncc2cc(-c3ccccc3Cl)c3nccn3c2n1 (as salt: HCl) [Compound 6]
15 | 210 to 212.5 | CC(C)Nc1ncc2cc(-c3ccccc3Cl)c3nccn3c2n1 (as salt: HCl) [Compound 7]
